For orientation: IC50 means the concentration needed to halve the response being measured.

For this assay, the target named is human-cGAS (h-cGAS) (Homo sapiens, UniProt Q8N884). Kind of assay: hcGAS Kinase-Glo Assay. The class given is biochemical. To be noted: 40 nM h-cGAS, 100 μM ATP, 100 μM GTP, 25 nM dsDNA, 3 h incubation, read-out: hcGAS potency IC50. Put shortly: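 Kinase-Glo luminescent read-out of human cGAS activity, following the published Lama et al. (2019) protocol with slightly altered conditions. Inhibition reported as IC50.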
human-cGAS (h-cGAS), sequence (Q8N884 whole entry): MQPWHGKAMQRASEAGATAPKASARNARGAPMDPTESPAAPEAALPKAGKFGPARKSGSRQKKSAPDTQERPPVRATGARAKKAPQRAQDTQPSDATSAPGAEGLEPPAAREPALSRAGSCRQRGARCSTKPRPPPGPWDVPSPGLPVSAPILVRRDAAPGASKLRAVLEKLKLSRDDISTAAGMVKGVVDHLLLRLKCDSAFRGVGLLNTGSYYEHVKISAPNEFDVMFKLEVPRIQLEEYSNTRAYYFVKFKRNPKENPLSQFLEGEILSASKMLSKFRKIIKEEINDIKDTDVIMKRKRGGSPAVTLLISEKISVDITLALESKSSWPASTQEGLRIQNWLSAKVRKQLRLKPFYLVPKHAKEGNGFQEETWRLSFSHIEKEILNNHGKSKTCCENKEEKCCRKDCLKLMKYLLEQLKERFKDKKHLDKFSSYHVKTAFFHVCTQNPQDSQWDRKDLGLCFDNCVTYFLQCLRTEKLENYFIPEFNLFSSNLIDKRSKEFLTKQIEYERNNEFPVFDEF
(Kinase-Glo measures the ATP left after a reaction by luminescence.)

As to `COc1ccc2noc(C(=O)Nc3nnc(SC)s3)c2c1` [Compound 224, 5-methoxy-N-[5-(methylsulfanyl)-1,3,4-thiadiazol-2-yl]-2,1-benzoxazole-3-carboxamide], the IC50 was no less than 1000 nM. In the case of `O=C(Nc1nnc(-c2ccccc2Cl)s1)c1cc(C(F)F)no1` [Compound 35, N-(5-(2-chlorophenyl)-1,3,4-thiadiazol-2-yl)-3-(difluoromethyl)isoxazole-5-carboxamide] it was 500 to 1000 nM; in that of `CSc1nnc(NC(=O)c2cc(-c3cc(F)ccc3F)no2)s1` [Compound 47, 3-(2,5-difluorophenyl)-N-(5-(methylthio)-1,3,4-thiadiazol-2-yl)isoxazole-5-carboxamide], 500 to 1000 nM. As to `NC(=O)c1cc(C(=O)Nc2nnc(-c3ccccc3Cl)s2)on1` [Compound 32, N5-(5-(2-chlorophenyl)-1,3,4-thiadiazol-2-yl)isoxazole-3,5-dicarboxamide], the concentration for half-maximal inhibition (IC50) was 100 to 500 nM.

Regarding `CSc1nnc(NC(=O)c2nnc(N3CCC(C)(C)CC3)o2)s1` [Compound 120, 5-(4,4-dimethylpiperidin-1-yl)-N-(5-(methylthio)-1,3,4-thiadiazol-2-yl)-1,3,4-oxadiazole-2-carboxamide], the 50% inhibitory concentration (IC50) lay in the range of 500 to 1000 nM.

`CSc1nnc(NC(=O)c2nnc(-c3c(F)cccc3F)o2)s1` [Compound 45, 5-(2,6-difluorophenyl)-N-(5-(methylthio)-1,3,4-thiadiazol-2-yl)-1,3,4-oxadiazole-2-carboxamide]: the IC50 lay in the range of 500 to 1000 nM. Take `Cn1nccc1-c1nnc(NC(=O)c2onc3ccccc23)s1` [Compound 146, N-(5-(1-methyl-1H-pyrazol-5-yl)-1,3,4-thiadiazol-2-yl)benzo[c]isoxazole-3-carboxamide]: the concentration for half-maximal inhibition (IC50) was no less than 1000 nM.

With `O=C(Nc1nnc(-c2ccccn2)s1)c1onc2ccccc12` [Compound 21, N-(5-(pyridin-2-yl)-1,3,4-thiadiazol-2-yl)benzo[c]isoxazole-3-carboxamide], the concentration for half-maximal inhibition (IC50) is 500 to 1000 nM. In the case of `CSc1nnc(NC(=O)c2onc3ccc(C(=O)c4ccccc4)cc23)s1` [Compound 167, 5-benzoyl-N-(5-(methylthio)-1,3,4-thiadiazol-2-yl)benzo[c]isoxazole-3-carboxamide] it was no less than 1000 nM. Then `O=C(Nc1nnc(-c2ccccc2Cl)s1)c1cc(-c2ccccc2)cc(=O)o1` [Compound 205, N-[5-(2-chlorophenyl)-1,3,4-thiadiazol-2-yl]-6-oxo-4-phenylpyran-2-carboxamide], with 100 to 500 nM; and `O=C(Nc1nnc(-c2ccccc2Cl)s1)c1cc(C(F)(F)F)no1` [Compound 34, N-(5-(2-chlorophenyl)-1,3,4-thiadiazol-2-yl)-3-(trifluoromethyl)isoxazole-5-carboxamide], with 500 to 1000 nM; and `Cc1nnc(NC(=O)c2onc3c2ccc2cccnc23)s1` [Compound 93, N-(5-methyl-1,3,4-thiadiazol-2-yl)isoxazolo[4,3-h]quinoline-3-carboxamide], with 500 to 1000 nM. In the case of `CSc1nnc(NC(=O)c2cc(C3CCC3)no2)s1` [Compound 86, 3-cyclobutyl-N-(5-(methylthio)-1,3,4-thiadiazol-2-yl)isoxazole-5-carboxamide] it was 500 to 1000 nM.

For `CSc1nnc(NC(=O)c2cc(-c3ccccc3Cl)no2)s1` [Compound 216], the concentration for half-maximal inhibition (IC50) is 500 to 1000 nM. Turning to `CSc1nnc(NC(=O)c2cc(-c3ccc4ccccc4c3)cc(=O)o2)s1` [Compound 245, N-(5-methylsulfanyl-1,3,4-thiadiazol-2-yl)-4-(2-naphthyl)-6-oxo-pyran-2-carboxamide], the IC50 was in the range of 100 to 500 nM. Turning to `CSc1nnc(NC(=O)c2nnc(-c3cccnc3)o2)s1` [Compound 107, N-[5-(methylsulfanyl)-1,3,4-thiadiazol-2-yl]-5-(pyridin-3-yl)-1,3,4-oxadiazole-2-carboxamide], the IC50 was 500 to 1000 nM. In the case of `Cc1cc(C(=O)Nc2nnc(-c3ccccc3Cl)s2)on1` [Compound 36, N-(5-(2-chlorophenyl)-1,3,4-thiadiazol-2-yl)-3-methylisoxazole-5-carboxamide] it was 100 to 500 nM.

These data come from patent US20250002487A1, “HETEROCYCLIC COMPOUNDS AND USES THEREOF” (Ventus Therapeutics U.S., Inc., priority 2021, published 2025).
